Assay results from patent US10106542B2, “Substituted 6,7-dihydropyrazolo[1,5-a]pyrazines as negative allosteric modulators of mGluR2 receptors” (Janssen Pharmaceutica NV, priority 2013, dated 2018).

How the values were obtained:
[1] = tested on: rat hippocampal brain slices; experiment: Reversal of mGluR2-agonism (LY-354740-depressed fEPSP) in hippocampal brain slices; type: cell-based
From the text: 7) Reversal of mGluR2-Agonism in Hippocampal Brain Slices Introduction
Electrophysiology recordings of field excitatory postsynaptic potentials (fEPSPs) in acute hippocampal brain slices represent a model for testing synaptic transmission and plasticity. The effect of Co. No. 1 on synaptic transmission and plasticity in dentate gyms synapses was investigated using this model.
Recordings of fEPSPs were made from hippocampal brain slices using a multi-electrode array (MEA) biochip, and 3-dimensional-(3D) tip electrodes, according to a standard protocol. These recordings were used to monitor glutamate-mediated synaptic transmission (FIG. 4).

rats = experiment: Reversal of the effect of the mGluR2 PAM JNJ-42153605 on scopolamine-induced hyperlocomotion; type: in vivo; conditions: Rattus norvegicus, 1 h, Route PO, test compound 60 min before recording, criterion total distance >1500 cm
Description: 2) Reversal of the Effect of the mGluR2 PAM JNJ-42153605 on Scopolamine-Induced Hyperlocomotion Apparatus
Motor activity was measured in microprocessor-based motor activity arenas (closed gray PVC cylinders with a height of 39 cm and a diameter of 31 cm). Each arena was placed on an infrared LED (8×8 LEDs) lit box (white PVC squared box; 40×40 cm^2; height 12.5 cm. An infrared-sensitive tube camera and a white light source were mounted to the ceiling above the observation chamber to track the animal. The total distance traveled (cm) was recorded and analyzed using the Noldus Ethovision XT Video Tracking System (Version 7.0.418; Noldus, Wageningen, The Netherlands). The intensity of the light within the activity cages (measured in the centre at the level of the floor) ranged between 4 and 8 LUX.
The rats were pretreated with test compound or vehicle at 60 min before the start of the activity recordings and placed into individual cages. The rats were challenged with JNJ-42153605 (3-(cyclopropylmethyl)-7-(4-phenylpiperidin-1-yl)-8-(trifluoromethyl)[1,2,4]triazolo[4,3-a]pyridine; WO2010/130424; Cid et al. J. Med. Chem. 2012, 55, 8770-8789) (20 mg/kg, i.v.) 30 min before the start of the activity recording combined with scopolamine (0.16 mg/kg, i.v.) just before the start of the activity measurements Immediately after the injection of scopolamine, the rats were placed into the activity monitors and total distance travelled over the first 30 min was measured.
Animals receiving the combination of JNJ-42153605 and scopolamine (n=433) almost always travelled a distance of less than 1500 cm (<1500 cm) (only 2.5% of the control rats travelled a distance of more than 1500 cm (>1500 cm)). On the other hand, animals challenged with scopolamine alone (n=215) always travelled a total distance of more than 1500 cm (>1500 cm) and almost always (in 95.8% of the rats) a distance of more than 4400 cm (>4400 cm). […] For reversal of the inhibitory effect of JNJ-42153605 on the scopolamine-induced hyperlocomotion, two all-or-none criteria were adopted: (1) reversal: total distance >1500 cm; (2) normalization: total distance >4400 cm.

Male Wiga Wistar rats = experiment: Reversal of LY-404039-induced decrease of palpebral opening in apomorphine-challenged rats; type: in vivo; conditions: Rattus norvegicus, Route PO; reversal of LY-404039-induced decrease of palpebral opening (cumulative score >26) in apomorphine challenged rats
Description: 6) Reversal of LY-404039-Induced Decrease of Palpebral Opening in Apomorphine-Challenged Rats.
Male Wiga Wistar rats (Crl:WI; Charles River Germany; 220±40 g) were housed under standard laboratory conditions (21±2° C.; 50-65% relative humidity; light-dark cycle set at 12 h; lights on at 6.00 h) and fasted overnight prior to the start of the experiments (tap water remained available ad libitum). During the test period, they were housed in individual cages. The local Ethical Committee approved all studies in compliance with the Declaration of Helsinki. Palpebral opening was scored every 5 min over the first hour after injection of apomorphine (1.0 mg/kg, i.v.) in animals either pretreated or not pretreated with LY-404039 (2.5 mg/kg, s.c.) at 1 h prior to the apomorphine injection. The animals were also pretreated with test compound or solvent at a predefined interval before apomorphine challenge. The score system was: (5) exophthalmos, (4) wide open, (3) open for three-quarters, (2) half open, (1) open for one-quarter, (0) closed. The scores for palpebral opening were cumulated over the 60-min observation period. A cumulative palpebral opening score >26 was selected for drug-induced reversal of the LY-404039-induced decrease of palpebral opening (occurrence in 3.2% of control animals pretreated with LY-404039 (n=154) versus in 99.5% of control rats not pretreated with LY-404039 (n=6335)).
In animals receiving apomorphine alone the median palpebral opening is 43 whereas in animals receiving apomorphine and LY-404039, the median palpebral opening is 17.

Wiga rats = experiment: Reserpine interaction test in rats; type: in vivo, rat; conditions: Rattus norvegicus, po; Time 60; reserpine 10 mg/kg SC; Wiga rats; read-out: ED50, reversal of reserpine-induced ptosis
Description: 4) Reserpine Interaction Test in Rats
It was investigated to what extent the mydriatic action of test compounds was sufficient to counteract the miosis induced by the monoamines-depleting agent reserpine (10 mg/kg; SC) in Wiga rats.
The effects are illustrated in FIG. 3. […] The reference mGlu2 NAMs RO-4995819 (40 mg/kg, p.o.), RO-4491533 (40 mg/kg, p.o.; 10 mg/kg, s.c.) and [CAS 579473-69-1]

human mGlu2 receptor = target: T1, human mGlu2 receptor (Homo sapiens, UniProt Q14416); experiment: [35S]GTPγS binding assay (mGluR2 negative allosteric modulation); type: biochemical; conditions: for IC50: membranes from CHO cells transfected with human mGlu2 receptor, glutamate 60 μM, pIC50 = −log IC50 (M), read-out: GTPγS - hmGluR2 anGT pIC50 (converted); for Emax: relative maximal effect: maximal % inhibition relative to the control glutamate response, read-out: GTPγS - hmGluR2 anGT Emax
T1 construct: expressed in transfected cells; host or cells: CHO cells (membrane preparation)
In short: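 Membranes from butyrate-stimulated CHO cells expressing human mGlu2; 7 μg protein in HEPES pH 7.4, 100 mM NaCl, 3 mM MgCl2, 10 μM GDP, 10 μg/ml saponin. Compound tested against EC80-equivalent glutamate; 0.1 nM [35S]GTPγS, 30 min, 30 °C; filtration, scintillation counting. Data as % of control glutamate response.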

T1 sequence (Q14416 19-872): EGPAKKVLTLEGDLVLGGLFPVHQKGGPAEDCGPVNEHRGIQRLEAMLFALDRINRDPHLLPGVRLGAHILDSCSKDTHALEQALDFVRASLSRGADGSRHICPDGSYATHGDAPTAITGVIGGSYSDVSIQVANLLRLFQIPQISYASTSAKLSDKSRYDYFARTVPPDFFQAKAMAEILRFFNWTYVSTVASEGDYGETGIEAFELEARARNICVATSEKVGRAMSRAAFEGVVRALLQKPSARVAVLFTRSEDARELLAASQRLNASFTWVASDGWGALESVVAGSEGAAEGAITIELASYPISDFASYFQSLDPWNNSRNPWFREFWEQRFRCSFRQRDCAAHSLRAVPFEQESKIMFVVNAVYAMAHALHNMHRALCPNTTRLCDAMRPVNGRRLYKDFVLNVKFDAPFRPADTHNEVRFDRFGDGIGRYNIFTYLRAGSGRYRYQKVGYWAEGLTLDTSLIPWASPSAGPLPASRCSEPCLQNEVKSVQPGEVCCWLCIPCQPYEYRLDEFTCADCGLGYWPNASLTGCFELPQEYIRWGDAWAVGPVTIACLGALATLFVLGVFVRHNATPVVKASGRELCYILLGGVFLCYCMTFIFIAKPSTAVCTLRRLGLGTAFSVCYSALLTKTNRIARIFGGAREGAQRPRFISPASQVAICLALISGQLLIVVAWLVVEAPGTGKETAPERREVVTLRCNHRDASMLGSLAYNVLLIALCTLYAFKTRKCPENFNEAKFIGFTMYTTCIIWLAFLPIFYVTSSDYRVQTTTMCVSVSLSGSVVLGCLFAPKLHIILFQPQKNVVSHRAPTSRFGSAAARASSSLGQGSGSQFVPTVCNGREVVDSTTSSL

SMILES: N[C@@]1(C(=O)O)CC[C@H]2[C@H](C(=O)O)[C@H]21 [LY-354740, reference compound]
- paired-pulse ratio (PPR) ([1]; 1 μM LY-354740): increase of the paired-pulse ratio
- depression of fEPSP ([1]; 1 μM, within 15 min of application, dentate gyrus): 50%

SMILES: C[C@H]1CN(c2ccc(C(F)(F)F)cc2)C(=O)c2c(-c3ccncc3)cnn21 [compound 2, (7S)-7-Methyl-3-pyridin-4-yl-5-[4-(trifluoromethyl)phenyl]-6,7-dihydropyrazolo [1,5-a]pyrazin-4(5H)-one]
- ED50 (rats): 1.26 mg/kg
- ED50 (Male Wiga Wistar rats): 0.5 mg/kg
- ED50 (Wiga rats): 0.32 mg/kg

SMILES: Cc1cc(-c2cnn3c2C(=O)N(c2ccc(C(F)(F)F)c(C)c2)C[C@@H]3C)ccn1 [compound 5]
- ED50 (rats): ≥ 2.5 mg/kg
- ED50 (Male Wiga Wistar rats): > 10 mg/kg

SMILES: CCOc1cc(N2C[C@H](C)n3ncc(-c4ccnc(C)c4)c3C2=O)ccc1C(F)(F)F [compound 8]
- IC50 (human mGlu2 receptor): 5.89e-09 M
- Emax (human mGlu2 receptor): 105%
- ED50 (rats): 5 mg/kg
- ED50 (Male Wiga Wistar rats): 5 mg/kg

SMILES: Cc1cc(-c2cnn3c2C(=O)N(c2ccc(Cl)cc2)C[C@@H]3C)ccn1 [compound 15]
- IC50 (human mGlu2 receptor): 2.63e-08 M
- Emax (human mGlu2 receptor): 103%
- ED50 (rats): 1.26 mg/kg
- ED50 (Male Wiga Wistar rats): 11.2 mg/kg

SMILES: CCOc1cc(N2C[C@@H](C)n3ncc(-c4ccnc(C)c4)c3C2=O)ccc1C(F)(F)F [compound 31]
- IC50 (human mGlu2 receptor): 4.37e-07 M
- Emax (human mGlu2 receptor): 107%
- ED50 (Male Wiga Wistar rats): ≥ 10 mg/kg
- ED50 (Wiga rats): 0.79 mg/kg

SMILES: CCOc1cc(N2CCn3ncc(-c4ccnc(C)c4)c3C2=O)ccc1C(F)(F)F [compound 33]
- IC50 (human mGlu2 receptor): 5.75e-07 M
- Emax (human mGlu2 receptor): 99%
- ED50 (Male Wiga Wistar rats): > 2.5 mg/kg
- ED50 (Wiga rats): 0.5 mg/kg

SMILES: CCNc1cc(-c2cnn3c2C(=O)N(c2ccc(C(F)(F)F)cc2)C[C@@H]3C)ccn1 [compound 44, (7S)-3-[2-(Ethylamino)-4-pyridyl]-7-methyl-5-[4-(trifluoromethyl)phenyl]-6,7-dihydropyrazolo[1,5-a]pyrazin-4-one]
- IC50 (human mGlu2 receptor): 6.17e-09 M
- Emax (human mGlu2 receptor): 105%
- ED50 (rats): ≥ 2.5 mg/kg
- ED50 (Male Wiga Wistar rats): 0.5 mg/kg
- melting point: > 300 °C

SMILES: COc1cc(-c2cnn3c2C(=O)N(c2ccc(C(F)(F)F)cc2)C[C@@H]3C)ccn1 [compound 45, (7S)-3-(2-Methoxy-4-pyridyl)-7-methyl-5-[4-(trifluoromethyl)phenyl]-6,7-dihydropyrazolo[1,5-a]pyrazin-4-one]
- ED50 (rats): 1.26 mg/kg
- ED50 (Male Wiga Wistar rats): 0.79 mg/kg

SMILES: CCc1cc(-c2cnn3c2C(=O)N(c2ccc(C(F)(F)F)cc2)C[C@@H]3C)ccn1 [compound 46, (7S)-3-(2-Ethyl-4-pyridyl)-7-methyl-5-[4-(trifluoromethyl)phenyl]-6,7-dihydropyrazolo[1,5-a]pyrazin-4-one]
- IC50 (human mGlu2 receptor): 6.31e-09 M
- Emax (human mGlu2 receptor): 105%
- ED50 (rats): ≥ 2.5 mg/kg
- ED50 (Male Wiga Wistar rats): 0.32 mg/kg
- melting point: 124.6 °C

SMILES: Cc1cc(-c2cnn3c2C(=O)N(c2ccc(C(F)(F)F)cc2)C[C@@H]3C)cc[n+]1[O-] [compound 140, (7S)-7-Methyl-3-(2-methyl-1-oxido-pyridin-1-ium-4-yl)-5-[4-(trifluoromethyl)phenyl]-6,7-dihydropyrazolo[1,5-a]pyrazin-4-one]
- IC50 (human mGlu2 receptor): 5.13e-07 M
- Emax (human mGlu2 receptor): 104%
- ED50 (Male Wiga Wistar rats): 1.99 mg/kg
- melting point: 231.5 °C

SMILES: CNc1cc(-c2cnn3c2C(=O)N(c2ccc(C(F)(F)F)cc2)C[C@@H]3C)ccn1 [compound 147, (7S)-7-Methyl-3-[2-(methylamino)-4-pyridyl]-5-[4-(trifluoromethyl)phenyl]-6,7-dihydropyrazolo[1,5-a]pyrazin-4-one]
- IC50 (human mGlu2 receptor): 5.75e-09 M
- Emax (human mGlu2 receptor): 106%
- ED50 (rats): 0.5 mg/kg
- ED50 (Male Wiga Wistar rats): 1.26 mg/kg
